Columns and labels:
[1] = test system: healthy Chinese male subjects; experiment: Safety evaluation; type: in vivo, human (healthy Chinese male subjects)
[2] = test system: patients with advanced NSCLC with EGFR mutations; conditions: FLAURA clinical study; cited from earlier work
[3] = test system: healthy Chinese male subjects; experiment: Safety evaluation; type: in vivo, human (healthy Chinese male subjects); conditions: Group 2

In the case of CCC(C)n1ncn(-c2ccc(N3CCN(c4ccc(OCC5COC(Cn6cncn6)(c6ccc(Cl)cc6Cl)O5)cc4)CC3)cc2)c1=O (stereo not shown) [Itraconazole], the “subjects with TEAEs” value ([1]; Group 1, monotherapy phase with Itraconazole 200 mg QD) is reported as 42.9% and the “subjects with TEAEs also related to Itraconazole” value ([1]; Group 1, 13 TEAEs in 10 subjects) is reported as 66.7%.
In the case of C=CC(=O)Nc1cc(Nc2nccc(-c3cn(C)c4ccccc34)n2)c(OC)cc1N(C)CCN(C)C [Osimertinib], the median overall survival [2] is given as 38.6 months.
For CO[C@H]1/C=C/O[C@@]2(C)Oc3c(C)c(O)c4c(O)c(c(/C=N/N5CCN(C)CC5)c(O)c4c3C2=O)NC(=O)/C(C)=C\C=C\[C@H](C)[C@H](O)[C@@H](C)[C@@H](O)[C@@H](C)[C@H](OC(C)=O)[C@@H]1C [Rifampicin], the “subjects with TEAEs also related to Rifampicin” value [3] was 20.0%.

From PMC12060349 (BMC Pharmacology & Toxicology, 2025)
